Measurements from patent US11166924B2, “N-methyl-d-aspartate receptor allosteric modulators and methods for their use” (Qingdao Primedicine Pharmaceutical Company, Ltd., priority 2016, dated 2021).

Legend:
Format in all cases: cell-based
GluN1^L135Q/GluN2A^F115S = molecular target: T1, GluN1^L135Q/GluN2A^F115S (Rattus norvegicus, UniProt P35439+Q00959, F115S/L135Q); assay: Patch clamp in HEK293 cells expressing double mutant GluN1 L135Q/GluN2A F115S
T1 construct: expressed in transfected cells; host or cells: HEK293
Method: (§1) Whole cell patch-clamp recordings were performed under voltage-clamp mode using an Axopatch 200B or 1D patch-clamp amplifier (Molecular Devices). Whole-cell currents were recorded at a holding potential of −60 mV unless indicated elsewhere, and signals were filtered at 2 kHz, digitized at 10 kHz (Digidata 1322A). Recording pipettes (3-5 MΩ) were filled with intracellular solution containing (mM): CsCl 140, HEPES 10, Mg-ATP 4, QX-314 5, pH 7.20; osmolarity, 290-295 mOsm. BAPTA (10 mM) was added in the intracellular solution (unless otherwise specified). The coverslips were continuously superfused with extracellular solution containing (mM): NaCl 140, KCl 5.4, HEPES 10, CaCl2 1.3, glucose 20, pH 7.4; osmolarity, 305-315 mOsm. NMDA-induced currents were applied by NMDA through perfusion fast-step (Warner Instruments). With perfusion fast-step system, NMDA application was achieved by using a two-square barrel glass tubing and depending on the age of the cultured neurons, CNQX (10 μM), TTX (0.5 μM) or BIC (10 μM) were added in the extracellular solution to minimize the activation of ionotropic glutamate receptors and voltage-gated sodium channels, respectively. All experiments were performed at room temperature. Recordings from at least six HEK293 cells/neurons were performed for all active compounds. […]

GluN1/GluN2A^P79A = molecular target: T2, GluN1/GluN2A^P79A (Rattus norvegicus, UniProt P35439+Q00959, P79A); assay: Patch clamp in HEK293 cells expressing mutant GluN1/GluN2A P79A
T2 construct: expressed in transfected cells; host or cells: HEK293
Method: as §1

GluN1^L135Q/GluN2A = molecular target: T3, GluN1^L135Q/GluN2A (Rattus norvegicus, UniProt P35439+Q00959, L135Q); assay: Patch clamp in HEK293 cells expressing mutant GluN1 L135Q/GluN2A
T3 construct: expressed in transfected cells; host or cells: HEK293
Method: as §1

[1] = molecular target: T4, GluN1/GluN2A-containing NMDARs (Rattus norvegicus, UniProt P35439+Q00959); assay: Ca2+ influx assay (Fluo-4) in primary cultured rat neurons
T4 construct: endogenous in cells; host or cells: primary rat cortical neurons, 12-14 days in culture
Method: Rat neurons isolated from the entire cortex were plated onto poly-d-lysine-coated 96-well plates. After 12-14 days in culture, the level of intracellular calcium was assayed using the Fluo-4 No Wash calcium assay kit according to the manufacturer's protocol (Thermo Fisher Scientific). In brief, the neuronal culture medium was removed and replaced with a calcium assay buffer (CAB) containing […], 20 mM HEPES, 2.5 mM probenacid, and Fluo4-NW dye mix (pH 7.4; Thermo Fisher Scientific). The cells were then incubated for 45 minutes at 37° C. for dye loading and then 15 minutes at 25° C. To isolate calcium signals mediated by NMDARs, NMDA was used as an agonist (10 μM), and 2 μM glycine were added. The antagonist […] was used to block the GluN1/GluN2A NMDARs. The calcium fluorescence measurement was performed at 25° C. after 60 seconds of recording with a FLEXStation II benchtop scanning fluorometer (Molecular Devices); then, the NMDAR agonist NMDA (10 μM)/glycine (2 μM) was added at 180 seconds. Fluorescence plate reading continued for a total of 30 mins with use of an excitation of 485 nm, an emission of 538 nm, and a cutoff of […]. The data were recorded using SoftMax Pro software (Molecular Devices). […]

GluN1/GluN2A^F115Y = molecular target: T5, GluN1/GluN2A^F115Y (Rattus norvegicus, UniProt P35439+Q00959, F115Y); assay: Patch clamp in HEK293 cells expressing mutant GluN1/GluN2A F115Y
T5 construct: expressed in transfected cells; host or cells: HEK293
Method: as §1

T3 sequence (Q00959 23-1464, other chains not shown): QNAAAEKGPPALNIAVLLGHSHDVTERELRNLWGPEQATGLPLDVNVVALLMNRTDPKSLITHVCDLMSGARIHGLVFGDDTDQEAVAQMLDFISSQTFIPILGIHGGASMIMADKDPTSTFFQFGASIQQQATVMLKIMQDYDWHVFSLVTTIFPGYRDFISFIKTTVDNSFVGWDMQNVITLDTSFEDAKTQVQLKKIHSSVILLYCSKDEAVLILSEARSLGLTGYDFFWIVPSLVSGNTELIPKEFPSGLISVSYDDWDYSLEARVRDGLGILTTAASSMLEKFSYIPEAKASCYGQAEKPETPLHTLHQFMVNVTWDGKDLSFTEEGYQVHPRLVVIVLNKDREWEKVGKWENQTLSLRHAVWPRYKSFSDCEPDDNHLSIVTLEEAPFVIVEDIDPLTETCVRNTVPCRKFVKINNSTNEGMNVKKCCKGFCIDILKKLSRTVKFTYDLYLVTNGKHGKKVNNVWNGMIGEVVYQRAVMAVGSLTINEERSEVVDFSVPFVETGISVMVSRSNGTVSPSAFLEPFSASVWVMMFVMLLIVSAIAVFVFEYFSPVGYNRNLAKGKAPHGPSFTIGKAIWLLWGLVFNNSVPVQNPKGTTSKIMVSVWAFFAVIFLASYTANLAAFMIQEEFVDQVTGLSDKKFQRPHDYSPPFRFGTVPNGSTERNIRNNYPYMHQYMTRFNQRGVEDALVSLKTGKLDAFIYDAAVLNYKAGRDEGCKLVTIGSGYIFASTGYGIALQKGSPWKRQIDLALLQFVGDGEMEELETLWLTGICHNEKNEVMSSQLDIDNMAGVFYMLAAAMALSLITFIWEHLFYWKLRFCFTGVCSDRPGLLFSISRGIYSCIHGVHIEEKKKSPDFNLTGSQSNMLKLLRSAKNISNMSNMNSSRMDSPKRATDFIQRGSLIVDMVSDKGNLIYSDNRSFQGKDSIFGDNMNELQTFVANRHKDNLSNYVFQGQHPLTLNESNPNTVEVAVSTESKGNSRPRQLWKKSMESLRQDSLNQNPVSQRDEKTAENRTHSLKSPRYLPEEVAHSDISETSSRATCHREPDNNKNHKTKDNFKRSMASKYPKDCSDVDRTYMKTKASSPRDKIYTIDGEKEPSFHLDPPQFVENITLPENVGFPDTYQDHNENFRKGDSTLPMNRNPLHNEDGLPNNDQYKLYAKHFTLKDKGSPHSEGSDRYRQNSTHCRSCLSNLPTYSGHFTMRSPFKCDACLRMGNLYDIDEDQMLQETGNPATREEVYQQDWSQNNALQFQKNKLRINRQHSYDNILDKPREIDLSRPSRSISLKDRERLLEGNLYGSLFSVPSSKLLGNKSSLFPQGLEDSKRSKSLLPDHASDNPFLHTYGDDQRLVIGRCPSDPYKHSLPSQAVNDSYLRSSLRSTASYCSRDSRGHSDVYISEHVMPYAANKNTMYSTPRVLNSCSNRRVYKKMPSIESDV
T1 sequence (Q00959 23-1464 F115S, other chains not shown): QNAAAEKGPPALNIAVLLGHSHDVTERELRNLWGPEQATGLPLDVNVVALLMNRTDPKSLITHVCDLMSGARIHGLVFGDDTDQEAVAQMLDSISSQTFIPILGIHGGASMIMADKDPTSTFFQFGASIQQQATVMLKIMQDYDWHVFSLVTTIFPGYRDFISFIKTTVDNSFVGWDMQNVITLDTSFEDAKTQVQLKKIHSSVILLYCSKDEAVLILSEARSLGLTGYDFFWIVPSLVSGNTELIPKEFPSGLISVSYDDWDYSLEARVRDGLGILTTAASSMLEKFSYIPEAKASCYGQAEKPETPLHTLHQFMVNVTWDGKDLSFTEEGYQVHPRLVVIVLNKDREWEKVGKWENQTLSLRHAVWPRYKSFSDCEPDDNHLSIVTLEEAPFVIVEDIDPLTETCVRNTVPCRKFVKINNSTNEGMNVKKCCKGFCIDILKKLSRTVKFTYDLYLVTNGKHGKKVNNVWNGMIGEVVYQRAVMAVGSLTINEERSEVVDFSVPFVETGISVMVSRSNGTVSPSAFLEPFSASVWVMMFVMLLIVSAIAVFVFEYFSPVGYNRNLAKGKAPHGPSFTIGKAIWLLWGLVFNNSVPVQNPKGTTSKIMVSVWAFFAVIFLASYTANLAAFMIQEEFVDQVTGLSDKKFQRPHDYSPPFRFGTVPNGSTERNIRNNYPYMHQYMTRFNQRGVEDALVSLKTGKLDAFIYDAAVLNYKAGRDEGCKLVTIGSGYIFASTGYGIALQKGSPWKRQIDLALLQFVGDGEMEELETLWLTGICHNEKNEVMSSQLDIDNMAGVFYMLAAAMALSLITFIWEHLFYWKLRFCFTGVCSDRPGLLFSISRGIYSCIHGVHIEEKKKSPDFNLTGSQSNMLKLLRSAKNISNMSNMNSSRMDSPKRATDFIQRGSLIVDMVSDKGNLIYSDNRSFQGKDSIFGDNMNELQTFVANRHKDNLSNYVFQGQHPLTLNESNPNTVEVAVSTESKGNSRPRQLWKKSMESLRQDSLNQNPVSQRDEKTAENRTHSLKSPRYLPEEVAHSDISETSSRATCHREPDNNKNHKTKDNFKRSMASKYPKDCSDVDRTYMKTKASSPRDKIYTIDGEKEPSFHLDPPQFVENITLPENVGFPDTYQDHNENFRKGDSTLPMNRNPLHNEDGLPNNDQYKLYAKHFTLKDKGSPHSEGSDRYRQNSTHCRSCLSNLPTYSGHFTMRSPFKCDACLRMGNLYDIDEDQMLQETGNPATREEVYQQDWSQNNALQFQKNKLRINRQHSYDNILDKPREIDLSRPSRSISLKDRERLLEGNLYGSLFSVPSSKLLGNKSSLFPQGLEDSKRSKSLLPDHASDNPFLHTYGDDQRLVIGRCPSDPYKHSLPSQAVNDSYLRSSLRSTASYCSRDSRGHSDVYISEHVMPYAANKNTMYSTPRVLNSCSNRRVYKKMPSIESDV
T4 sequence (Q00959 23-1464, other chains not shown): as the sequence (Q00959 23-1464, other chains not shown) above

## CCOc1cc(Cl)c(Cl)c(/C=N/NC(=O)c2ccccc2Br)c1O [Npam43, (E)-2-bromo-N′-(2,3-dichloro-5-ethoxy-6-hydroxybenzylidene)benzohydrazide]
GluN1^L135Q/GluN2A^F115S; GluN1 L135Q/GluN2A F115S double mutation, normalized to wild-type
  Net Difference potentiation: −93.9±10.3%
GluN1^L135Q/GluN2A^F115S; Table 3, GluN1 L135Q/GluN2A F115S
  Relative potentiation: 12.7 ± 1.8%
GluN1/GluN2A^P79A; Table 3
  Relative potentiation: 99.3 ± 2.8%
GluN1/GluN2A^P79A; normalized to wild-type
  Net Difference potentiation: −52.5 ± 0.20%
GluN1^L135Q/GluN2A; Table 3
  Relative potentiation: 47.1 ± 2.8%
GluN1^L135Q/GluN2A; normalized to wild-type
  Net Difference potentiation: −77.5±2.12%
[1]; GluN2A antagonist co-applied
  Ca2+ influx in response to Npam43 with co-applied NVP-AAM0077: marked reduction of Ca^2+ influx
[1]; NMDA 10 μM, glycine 2 μM
  Ca2+ influx fluorescence signal: increased the Ca^2+ influx fluorescence signal
GluN1/GluN2A^F115Y; Table 3
  Relative potentiation: 100 ± 4.2%
GluN1/GluN2A^F115Y; normalized to wild-type
  Net Difference potentiation: −52.2 ± 0.52%
